Data set [1] has as its system MDA-MB-231. The experiment in a line: Induction of NO production in human MDA-MB-231 cells assessed as increase in NO fluorescence at 50 nM treated with DAF-DM diacetate for 30 mins and measured after 2 hrs incubation by confocal microscopic analysis. In kind it is functional, cell-based.
The subject of data set [2] is WiDr. In words: Antiproliferative activity against human WiDr cells assessed as inhibition of cell proliferation by MTT assay. Type of data set: functional, cell-based. On the technique in general: Tetrazolium dyes change colour on reduction, which living cells bring about.
For data set [3], the system named is MDA-MB-231. In words: Induction of NO production in human MDA-MB-231 cells assessed as nitrite level at 100 uM by Griess reagent based assay. Type of data set: functional, cell-based.
Data set [4] deals with MDA-MB-231. The experiment in a line: Antiproliferative activity against human MDA-MB-231 cells assessed as inhibition of cell proliferation by MTT assay. In kind it is functional, cell-based.
A short description of data set [5]: Cytotoxicity against human HDFa cells assessed as inhibition of cell proliferation by MTT assay. Type of data set: toxicity, cell-based.
Data set [6] deals with 4T1. In words: Antiproliferative activity against mouse 4T1 cells assessed as inhibition of cell proliferation by MTT assay. Type of data set: functional, cell-based.
Data set [7] can be described thus: Cytotoxicity against human MCF-10A cells assessed as inhibition of cell proliferation by MTT assay. Type of data set: toxicity, cell-based.
The subject of data set [8] is MDA-MB-231. In words: Antitumor activity against human MDA-MB-231 cells xenografted in NOD-SCID mouse assessed as reduction in tumor volume at 20 mg/kg, ip measured for every 2 to 3 days. Further details: scale not given: the % may be the effect or the level left. The following applies: time 2-3 day. Type of data set: functional.
The test system of data set [9] is MDA-MB-231. In words: Induction of apoptosis in human MDA-MB-231 cells assessed as early apoptotic cells at 25 nM by annexin V-FITC and PI staining based flow cytometry method (reference value: 1.92 %). Type of data set: functional. (Flow cytometry measures light scatter and fluorescence of single cells or particles in a stream.)
Data set [10] has as its system MDA-MB-231. The experiment in a line: Induction of apoptosis in human MDA-MB-231 cells assessed as late apoptotic cells at 10 nM by annexin V-FITC and PI staining based flow cytometry method (reference value: 2.02 %). In kind it is functional.
Data set [11] has as its system MDA-MB-231. In words: Cell cycle arrest in human MDA-MB-231 cells assessed as accumulation of cells at G0/G1 phase at 20 nM by PI staining based flow cytometry method. Type of data set: functional.
The test system of data set [12] is MDA-MB-231. The experiment in a line: Induction of apoptosis in human MDA-MB-231 cells assessed as viable cells at 25 nM by annexin V-FITC and PI staining based flow cytometry method (reference value: 93.2 %). In kind it is functional. The following applies: read-out: Activity.
In data set [13] the test system is MDA-MB-231. In words: Induction of apoptosis in human MDA-MB-231 cells assessed as early apoptotic cells at 50 nM by annexin V-FITC and PI staining based flow cytometry method (reference value: 1.92 %). Type of data set: functional.
Data set [14] concerns MDA-MB-231. The experiment in a line: Induction of apoptosis in human MDA-MB-231 cells assessed as necrotic cells at 25 nM by annexin V-FITC and PI staining based flow cytometry method (reference value: 2.88 %). Type of data set: functional.
In data set [15] the test system is MDA-MB-231. In words: Induction of apoptosis in human MDA-MB-231 cells assessed as late apoptotic cells at 50 nM by annexin V-FITC and PI staining based flow cytometry method (reference value: 2.02 %). In kind it is functional.
In data set [16] the test system is MDA-MB-231. The experiment in a line: Induction of apoptosis in human MDA-MB-231 cells assessed as viable cells at 10 nM by annexin V-FITC and PI staining based flow cytometry method (reference value: 93.2 %). In kind it is functional. The following applies: read-out: Activity.
Data set [17] relates to MDA-MB-231. The experiment in a line: Induction of apoptosis in human MDA-MB-231 cells assessed as early apoptotic cells at 10 nM by annexin V-FITC and PI staining based flow cytometry method (reference value: 1.92 %). In kind it is functional.
For data set [18], the system named is MDA-MB-231. The experiment in a line: Antitumor activity against human MDA-MB-231 cells xenografted in NOD-SCID mouse assessed as reduction in tumor mass at 20 mg/kg, ip measured for every 2 to 3 days. The following applies: time 2-3 day. In kind it is functional. More on the design: scale not given: the % may be the effect or the level left. (A xenograft is tissue or cells of one species grown in another, often human tumour cells in immunodeficient mice.)

Data set [19] has as its system MDA-MB-231. The experiment in a line: Induction of apoptosis in human MDA-MB-231 cells assessed as late apoptotic cells at 25 nM by annexin V-FITC and PI staining based flow cytometry method (reference value: 2.02 %). Type of data set: functional.
Data set [20] has as its system MDA-MB-231. In words: Induction of apoptosis in human MDA-MB-231 cells assessed as necrotic cells at 50 nM by annexin V-FITC and PI staining based flow cytometry analysis (reference value: 2.88 %). In kind it is functional.
The test system of data set [21] is MDA-MB-231. In words: Inhibition of colony formation in human MDA-MB-231 cells assessed as reduction in colony formation at 1 to 3 nM relative to control. The following applies: dose 1-3 nM. In kind it is functional, cell-based.
The subject of data set [22] is MDA-MB-231. In words: Induction of apoptosis in human MDA-MB-231 cells assessed as necrotic cells at 10 nM by annexin V-FITC and PI staining based flow cytometry method(reference value: 2.88 %). In kind it is functional.
Data set [23] in a line: Toxicity in […] mouse xenografted with human MDA-MB-231 cells assessed as body weight loss at 20 mg/kg, ip dosed once daily for 14 days relative to control. Type of data set: organism-based. The following applies: in vivo, 336 h, time 14 day.
Data set [24] relates to MDA-MB-231. In words: Induction of apoptosis in human MDA-MB-231 cells assessed as viable cells at 50 nM by annexin V-FITC and PI staining based flow cytometry method (reference value: 93.2 %). Type of data set: functional. The following applies: read-out: Activity.

The values below come from ChEMBL document CHEMBL5038616, “Synthesis and biological evaluation of N, N-dialkylcarboxy coumarin-NO donor conjugates as potential anticancer agents” (Bioorg Med Chem Lett, 2021).

As a reminder, the IC50 is the concentration needed to halve the response being measured.

The structures appear in SMILES notation. Calls of active or inactive are those of the source. The calls are words filed in the database; no cut-off is given here.

For `CCN(CC)c1ccc2cc(C(=O)OCCOc3no[n+]([O-])c3S(=O)(=O)c3ccccc3)c(=O)oc2c1`, the outcome in [1] and in data set [3] was Active. For the same compound, the IC50 turned out to be 2.2 µM in [2], 3.6 µM in [4], 1.48 µM in [5] and 1.3 µM in data set [6].
Consider `O=C(OCCO)c1cc2ccc(N(Cc3ccccc3)Cc3ccccc3)cc2oc1=O`, for which the IC50 in data set [2], in data set [7], in data set [4] and in data set [6] was > 100 µM in each case.
Turning to `O=C(OCCOc1no[n+]([O-])c1S(=O)(=O)c1ccccc1)c1cc2ccc(N(Cc3ccccc3)Cc3ccccc3)cc2oc1=O`, the result in [1] and in data set [11] was Active. The Activity in [8] was found to be 48%; in [9] it was 3.04%; in data set [10] it was 5.7%; in [13] it was 4.8%; in data set [14] it was 1.65%; in data set [15], 32.9%. Besides, the Activity in [17] is 2.04%; in data set [18] it was 35%; in data set [19], 19.4%; in data set [20] it was 1.47%; in [21] it was “Dose-Dependent Effect”; in [22] it was 1.36%. For the same compound, the Activity entry in [23] is listed as “Non-Toxic”. In addition, the IC50 in [2] is 0.03 µM; in data set [3], “Active”; in data set [7], 34 µM; in data set [4], 0.02 µM; in data set [5], 1.48 µM; in data set [6] it was 0.13 µM. For the same compound, the viability at 0.025 µM in data set [12] was found to be 75.9%. In addition, the viability at 0.01 µM in data set [16] amounted to 90.9%. The viability at 0.05 µM in data set [24] is 60.8%.
Regarding `CCN(CC)c1ccc2cc(C(=O)OCCO)c(=O)oc2c1`, the IC50 in data set [2], in [7], in data set [4] and in data set [6] was > 100 µM in each case.
Regarding `O=C(c1cc2ccc(N(Cc3ccccc3)Cc3ccccc3)cc2oc1=O)N1CCN(CCOc2no[n+]([O-])c2S(=O)(=O)c2ccccc2)CC1`, in [1], the result was Active. The IC50 in data set [2] stood at 10 µM; in [7] it was 8.6 µM; in data set [4] it was 0.46 µM; in data set [5], 5.31 µM; in [6] it was 0.96 µM. Further, the result in [3] was inactive.
For `O=C(O)c1cc2ccc(N(Cc3ccccc3)Cc3ccccc3)cc2oc1=O`, the half-inhibitory concentration (IC50) in data set [2], in [7], in [4] and in data set [6] was > 100 µM each time.
